Assay results: patent publication US10385057B2, “Pyrazole compounds and methods of making and using same” (Lundbeck La Jolla Research Center, Inc., priority 2015, dated 2019)

Experiments:
[1] = molecular target: T1, FAAH (Mus musculus, UniProt O08914); experiment: In vitro competitive activity-based protein profiling, mouse FAAH; assay type: biochemical; conditions: for inhibition at 1 µM: read-out: FAAH % inh. 1 μM (mouse)
T1 construct: mouse brain membrane fraction or cell lysates for mouse assays; from tissue
T1 sequence (O08914 1-579): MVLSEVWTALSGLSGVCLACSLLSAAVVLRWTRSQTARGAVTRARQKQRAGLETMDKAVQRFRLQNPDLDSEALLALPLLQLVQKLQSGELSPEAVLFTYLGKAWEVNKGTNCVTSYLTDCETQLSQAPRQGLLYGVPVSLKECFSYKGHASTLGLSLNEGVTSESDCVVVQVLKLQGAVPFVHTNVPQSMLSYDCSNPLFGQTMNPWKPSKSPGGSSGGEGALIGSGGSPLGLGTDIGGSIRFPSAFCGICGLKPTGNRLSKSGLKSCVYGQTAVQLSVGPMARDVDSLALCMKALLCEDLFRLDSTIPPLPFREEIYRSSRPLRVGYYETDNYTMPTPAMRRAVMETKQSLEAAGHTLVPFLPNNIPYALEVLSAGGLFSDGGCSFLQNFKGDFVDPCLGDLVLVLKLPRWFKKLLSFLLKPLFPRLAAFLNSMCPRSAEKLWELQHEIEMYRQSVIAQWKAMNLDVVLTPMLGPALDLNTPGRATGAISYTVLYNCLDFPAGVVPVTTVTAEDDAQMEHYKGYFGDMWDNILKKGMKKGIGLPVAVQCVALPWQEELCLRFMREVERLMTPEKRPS
In short: (§1)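 Mouse brain membranes or cell lysates (mouse) and human prefrontal cortex or cell membrane fractions (human), 1.0 mg/mL protein, preincubated with inhibitor 30 min at 37 °C, then FP-Rh or HT-01 probe 30 min at 37 °C. SDS-PAGE; MAGL and FAAH activity from in-gel fluorescence band intensity.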

[2] = molecular target: T2, MAGL (Mus musculus, UniProt O35678); experiment: In vitro competitive activity-based protein profiling, mouse MAGL; assay type: biochemical; conditions: for inhibition at 1 µM: read-out: MAGL % inh. 1 μM (mouse)
T2 construct: mouse brain membrane fraction or cell lysates for mouse assays; from tissue
T2 sequence (O35678 1-303): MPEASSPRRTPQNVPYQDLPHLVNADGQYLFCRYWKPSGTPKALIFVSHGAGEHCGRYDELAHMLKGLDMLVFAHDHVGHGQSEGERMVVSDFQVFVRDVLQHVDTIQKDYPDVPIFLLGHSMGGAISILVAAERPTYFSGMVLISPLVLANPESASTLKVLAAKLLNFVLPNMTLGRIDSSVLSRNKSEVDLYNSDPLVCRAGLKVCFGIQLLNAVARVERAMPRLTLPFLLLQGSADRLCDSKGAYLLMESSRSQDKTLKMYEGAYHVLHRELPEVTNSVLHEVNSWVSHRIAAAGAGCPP
In short: as §1

SMILES | IC50 [1] [nM] | inhibition at 1 µM [1] [%] | IC50 [2] [nM] | inhibition at 1 µM [2] [%]
O=C(N1CCC2(CCN(Cc3ccc(Cl)cc3)C2)C1)n1cc(Cl)cn1 (stereo not drawn) [Example 115, (4-chloro-1H-pyrazol-1-yl)(7-(4-chlorobenzyl)-2,7-daizaspiro[4.4]nonan-2-yl)methanone] | 100 to 1000 | ≥ 75 | 100 to 1000 | ≥ 75
Cc1cc(-c2ccccc2)ccc1CN1CC2CN(C(=O)n3cc(Cl)cn3)CC2C1 (stereo not drawn) [Example 121, (4-chloro-1H-pyrazol-1-yl)(5-((3-methyl-[1,1′-biphenyl]-4-yl)methyl)hexahydropyrrolo[3,4-c]pyrrol-2(1H)-yl)methanone] | ≤ 100 | ≥ 75 | ≤ 100 | ≥ 75
O=C(N1CC2CN(Cc3cccc(Oc4ccccc4)c3)CC2C1)n1cc(Cl)cn1 (stereo not drawn) [Example 124, (4-chloro-1H-pyrazol-1-yl)(5-(3-phenoxybenzyl)hexahydropyrrolo[3,4-c]pyrrol-2(1H)-yl)methanone] | ≤ 100 | ≥ 75 | ≤ 100 | ≥ 75
O=C(N1CCC2(CCN(Cc3ccc(Cl)c(Cl)c3)C2)C1)n1cc(Cl)cn1 (stereo not drawn) [Example 127, (4-chloro-1H-pyrazol-1-yl)(7-(3,4-dichlorobenzyl)-2,7-diazaspiro[4.4]nonan-2-yl)methanone] | ≤ 100 | ≥ 75 | 100 to 1000 | ≥ 75
O=C(N1CCC2(CCN(Cc3ccc(C(F)(F)F)cc3)C2)C1)n1cc(Cl)cn1 (stereo not drawn) [Example 128, (4-chloro-1H-pyrazol-1-yl)(7-(4-(trifluoromethyl)benzyl)-2,7-diazaspiro[4.4]nonan-2-yl)methanone] | 100 to 1000 | ≥ 75 | 100 to 1000 | ≥ 75
O=C(N1CCC2(CCN(Cc3ccc(CN4CCOCC4)cc3)C2)C1)n1cc(Cl)cn1 (stereo not drawn) [Example 129, (4-chloro-1H-pyrazol-1-yl)(7-(4-(morpholinomethyl)benzyl)-2,7-diazaspiro[4.4]nonan-2-yl)methanone] |  | 50 to 75 |  | 25 to 50
O=C(N1CCC2(CCN(Cc3cccc(Oc4ccccc4)c3)C2)C1)n1cc(Cl)cn1 (stereo not drawn) [Example 135, (4-chloro-1H-pyrazol-1-yl)(7-(3-phenoxybenzyl)-2,7-diazaspiro[4.4]nonan-2-yl)methanone] | ≤ 100 | ≥ 75 | 100 to 1000 | ≥ 75
O=C(N1CCC2(CCN(Cc3ccc(N4CCOCC4)cc3Cl)C2)C1)n1cc(Cl)cn1 (stereo not drawn) [Example 137, (4-chloro-1H-pyrazol-1-yl)(7-(2-chloro-4-morpholinobenzyl)-2,7-diazaspiro[4.4]nonan-2-yl)methanone] | ≤ 100 | ≥ 75 | ≤ 100 | ≥ 75
Cc1cc(N2CCOCC2)ccc1CN1CCC2(CCN(C(=O)n3cc(Cl)cn3)C2)C1 (stereo not drawn) [Example 138, (4-chloro-1H-pyrazol-1-yl)(7-(2-methyl-4-morpholinobenzyl)-2,7-diazaspiro[4.4]nonan-2-yl)methanone] | ≤ 100 | ≥ 75 | 100 to 1000 | ≥ 75
Cc1cccc(CN2CC3CN(C(=O)n4cc(C(F)(F)F)cn4)CC3C2)c1 (stereo not drawn) [Example 141, (5-(3-methylbenzyl)hexahydropyrrolo[3,4-c]pyrrol-2(1H)-yl)(4-(trifluoromethyl)-1H-pyrazol-1-yl)methanone] | ≤ 100 | ≥ 75 | ≤ 100 | ≥ 75
COc1cccc(CN2CC3CN(C(=O)n4cc(C(F)(F)F)cn4)CC3C2)c1 (stereo not drawn) [Example 142, (5-(3-methoxybenzyl)hexahydropyrrolo[3,4-c]pyrrol-2(1H)-yl)(4-(trifluoromethyl)-1H-pyrazol-1-yl)methanone] | ≤ 100 | ≥ 75 | ≤ 100 | ≥ 75
O=C(N1CC2CN(Cc3cccc(C(F)(F)F)c3)CC2C1)n1cc(C(F)(F)F)cn1 (stereo not drawn) [Example 143, (4-(trifluoromethyl)-1H-pyrazol-1-yl)(5-(3-(trifluoromethyl)benzyl)hexahydropyrrolo[3,4-c]pyrrol-2(1H)-yl)methanone] | ≤ 100 | ≥ 75 | ≤ 100 | ≥ 75

Other lines, results leading:

IC50 [1] [nM] | inhibition at 1 µM [1] [%] | IC50 [2] [nM] | inhibition at 1 µM [2] [%] | SMILES
≤ 100 | ≥ 75 | ≤ 100 | ≥ 75 | O=C(N1CC2CN(Cc3cccc(Cl)c3)CC2C1)n1cc(Cl)cn1 (stereo not drawn) [Example 117, (4-chloro-1H-pyrazol-1-yl)(5-(3-chlorobenzyl)hexahydropyrrolo[3,4-c]pyrrol-2(1H)-yl)methanone]
≤ 100 | ≥ 75 | ≤ 100 | ≥ 75 | O=C(N1CC2CN(Cc3ccc(C(F)(F)F)cc3)CC2C1)n1cc(Cl)cn1 (stereo not drawn) [Example 120, (4-chloro-1H-pyrazol-1-yl)(5-(4-(trifluoromethyl)benzyl)hexahydropyrrolo[3,4-c]pyrrol-2(1H)-yl)methanone]
100 to 1000 | ≥ 75 | 100 to 1000 | ≥ 75 | O=C(N1CC2CN(Cc3ccc(CN4CCOCC4)cc3)CC2C1)n1cc(Cl)cn1 (stereo not drawn) [Example 122, (4-chloro-1H-pyrazol-1-yl)(5-(4-(morpholinomethyl)benzyl)hexahydropyrrolo[3,4-c]pyrrol-2(1H)-yl)methanone]
100 to 1000 | ≥ 75 | 100 to 1000 | ≥ 75 | O=C(N1CC2CN(Cc3ccc(N4CCCC4)cc3)CC2C1)n1cc(Cl)cn1 (stereo not drawn) [Example 123, (4-chloro-1H-pyrazol-1-yl)(5-(4-(pyrrolidin-1-yl)benzyl)hexahydropyrrolo[3,4-c]pyrrol-2(1H)-yl)methanone]
100 to 1000 | ≥ 75 | 100 to 1000 | ≥ 75 | O=C(N1CC2CN(Cc3ccc(N4CCOCC4)cc3)CC2C1)n1cc(Cl)cn1 (stereo not drawn) [Example 125, (4-chloro-1H-pyrazol-1-yl)(5-(4-morpholinobenzyl)hexahydropyrrolo[3,4-c]pyrrol-2(1H)-yl)methanone]
≤ 100 | ≥ 75 | ≤ 100 | ≥ 75 | O=C(N1CC2CN(Cc3ccc(N4CCOCC4)cc3Cl)CC2C1)n1cc(Cl)cn1 (stereo not drawn) [Example 126, (4-chloro-1H-pyrazol-1-yl)(5-(2-chloro-4-morpholinobenzyl)hexahydropyrrolo[3,4-c]pyrrol-2(1H)-yl)methanone]
≤ 100 | ≥ 75 | ≤ 100 | ≥ 75 | Cc1cc(N2CCOCC2)ccc1CN1CC2CN(C(=O)n3cc(Cl)cn3)CC2C1 (stereo not drawn) [Example 131, (4-chloro-1H-pyrazol-1-yl)(5-(2-methyl-4-morpholinobenzyl)hexahydropyrrolo[3,4-c]pyrrol-2(1H)-yl)methanone]
≤ 100 | ≥ 75 | 100 to 1000 | ≥ 75 | O=C(N1CCC2(CCN(Cc3ccc(N4CCCC4)cc3)C2)C1)n1cc(Cl)cn1 (stereo not drawn) [Example 134, (4-chloro-1H-pyrazol-1-yl)(7-(4-(pyrrolidin-1-yl)benzyl)-2,7-diazaspiro[4.4]nonan-2-yl)methanone]
100 to 1000 | ≥ 75 | 100 to 1000 | ≥ 75 | O=C(N1CCC2(CCN(Cc3ccc(N4CCOCC4)cc3)C2)C1)n1cc(Cl)cn1 (stereo not drawn) [Example 136, (4-chloro-1H-pyrazol-1-yl)(7-(4-morpholinobenzyl)-2,7-diazaspiro[4.4]nonan-2-yl)methanone]
≤ 100 | ≥ 75 | ≤ 100 | ≥ 75 | O=C(N1CC2CN(Cc3cccc(N4CCCC4)c3)CC2C1)n1cc(C(F)(F)F)cn1 (stereo not drawn) [Example 144, (5-(3-(pyrrolidin-1-yl)benzyl)hexahydropyrrolo[3,4-c]pyrrol-2(1H)-yl)(4-(trifluoromethyl)-1H-pyrazol-1-yl)methanone]
≤ 100 | ≥ 75 | ≤ 100 | ≥ 75 | O=C(N1CC2CN(Cc3cccc(N4CCOCC4)c3)CC2C1)n1cc(C(F)(F)F)cn1 (stereo not drawn) [Example 145, (5-(3-morpholinobenzyl)hexahydropyrrolo[3,4-c]pyrrol-2(1H)-yl)(4-(trifluoromethyl)-1H-pyrazol-1-yl)methanone]
